Laboratory results as given in patent US12594258B2, “Inhibitors of MHC-I Nef downmodulation for treating HIV” (priority 2019, dated 2026).

Assays:
[1] = system: lysosome neutralization in primary CD4+ T cells; assay: Lysotracker Red flow cytometry assay in primary CD4+ T cells; format: cell-based, human
Procedure: Cells were treated with plecomacrolides at a density of 1×10^6 cells/mL for 24 hours, then treated with 100 nM LysoTracker Red DND-99 (Fisher, L7528) in PBS at a density of 1×10^6 cells/mL for 1 hour at 37° C., washed twice in PBS, and fixed in 2% PFA before flow cytometric analysis on a BioRad Ze5 flow cytometer.
Lysotracker Flow Cytometry Assay. Cells were treated with plecomacrolides at a density of 1×10^6 cells per milliliter for 24 h, and then treated with 100 nM LysoTracker Red DND-99 in phosphate-buffered saline (PBS) at a density of 1×10^6 cells per milliliter for 1 h at 37° C., washed twice in PBS, and fixed in 2% paraformaldehyde (PFA) before flow cytometric analysis on a flow cytometer.

[2] = system: HIV Nef
[3] = CMA concentration in mouse plasma and lymph nodes by mass spectrometry; format: in vivo, mice; conditions: 2 hours after the final dose
Procedure: FIG. 8A is a schematic representation of experiments for FIG. 8B-D. Five mice per group received injections of CMA every 2 days for 10 doses. Blood plasma and lymph nodes were harvested from mice sacrificed 2 hours after the final injection.
FIG. 8D is a summary graph of mass spectrometry data quantifying the concentration of CMA in blood plasma from mice in each Group A and Group B.
FIG. 8E is a summary graph of mass spectrometry data quantifying the concentration of CMA in lymph nodes from mice in each Group A and Group B. Points represent the 5 individual mice within each group. LOD=limit of detection. Open circles represent samples with CMA below the limit of detection.
Mouse in vivo Assays. To further examine the tolerability of CMA, preliminary studies were performed in two groups of mice injected with different doses of CMA every other day for 18 days (FIG. 8A). […] In a separate experiment, plasma harvested from treated mice inhibited Nef in our in vitro assay (FIG. 8F). Taken together, these promising preliminary studies provide evidence that CMA is both efficacious and tolerable in vivo.

[4] = system: HIV-infected primary CD4+ T cells; assay: Flow cytometric CTL killing assay; format: cell-based, human
From the text: CTL clones were isolated by limiting dilution from HIV-1- infected individuals. […] The CTL clones were maintained in culture with periodic re-stimulation as previously described except for the following changes; CTL clones were stimulated with anti-CD3 clone 12F6 (NIH AIDS Reagent Program) and cultured with IL-2 (NIH AIDS Reagent Program, Hoffman-La Roche). Peripheral blood mononuclear feeder cells were isolated from leukopaks (New York Blood Center) and X-irradiated with […] in R10 medium. Irradiations were performed using a Kimtron IC 225(Kimtron Medical) at a dose rate of approximately 2 Gy/min in the University of Michigan Comprehensive Cancer Center Experimental Irradiation Core (Ann Arbor, Mich.). CTL clones 115B15 and 161JXA14 both recognize HIV gag amino acids 77-85; SLYNTVATL presented by MHC-I HLA-A2 (71).
CTL elimination assays were performed as previously described with the following modifications: 72 hours post-infection primary CD4^+ T cells were stained with CellTracker Green (Fisher, c7025) according to manufacturer's protocol and treated with 0.5 nM CMA or solvent control for 24 hours. 50,000 target cells were used per condition, and following the 4 hours of co-culture, the cells were stained with DAPI as a viability dye in addition to anti-PLAP and BB7.2 antibodies. […]

[5] = system: lysosomal pH in human monocyte-derive macrophages (MDMs); assay: Lysosensor Yellow/Blue dextran analysis of lysosomal pH in MDMs; format: cell-based; conditions: 1 hour, read-out: EC50 for lysosome neutralization
Procedure: To measure the lysosomal pH in human monocyte-derive macrophages (MDMs), MDMs adhered to 24-well plates were exposed to 500 μg/mL Lysosensor Yellow/Blue dextran, 10,000 MW (ThermoFisher, L22460) in R10 for 24 hours. MDMs were then exposed to plecomacrolides for 1 hour and harvested with 0.05% Trypsin-EDTA (Gibco 25300054). Cells were washed twice in FACS buffer, and analyzed on a MoFlo Astrios flow cytometer, with blue signal excited from a 354 nm laser and yellow signal excited from a 405 nm laser. A standard curve was generated by resuspending MDMs in equilibration buffers of known pH as previously described. The ratio of blue:yellow fluorescence intensity was calculated for each cell, the median blue:yellow ratio for the cell population for each condition was obtained, and the lysosomal pH in MDMs was calculated for each condition using the standard curve.
Lysosensor Yellow/Blue Dextran Analysis of Lysosomal pH. To measure the lysosomal pH in human MDMs, MDMs adhered to 24-well plates were exposed to 500 μg/mL Lysosensor Yellow/Blue dextran, 10,000 molecular weight (MVV) in R10 for 24 h. MDMs were then exposed to plecomacrolides for 1 h and harvested with 0.05% Trypsin-(ethylenedinitrilo)tetraacetic acid (EDTA). Cells were washed twice in FACS buffer, and analyzed on a flow cytometer, with blue signal excited from a 354-nm laser and yellow signal excited from a 405-nm laser. A standard curve was generated by resuspending MDMs in equilibration buffers of known pH. The ratio of blue:yellow fluorescence intensity was calculated for each cell, the median blue:yellow ratio for the cell population for each condition was obtained, and the lysosomal pH in MDMs was calculated for each condition using the standard curve.

C/C=C/[C@H]1O[C@@](O)([C@@H](C)[C@H](O)[C@H](C)[C@H]2OC(=O)/C(OC)=C/C(C)=C/[C@@H](C)[C@@H](O)[C@@H](CC)[C@@H](O)[C@H](C)C/C(C)=C/C=C/[C@@H]2OC)C[C@@H](O[C@H]2C[C@@H](O)[C@H](OC(N)=O)[C@@H](C)O2)[C@@H]1C [CMA, concanamycin A]
difference between EC50 for lysosome neutralization and EC50 for Nef inhibition [1]: 27 fold | EC50 ([1]; 24 hours): 1.9 nM | restoration of CD4 to the cell surface of Nef-expressing cells ([2]; 2.5 nM and 0.5 nM): neither dose of CMA restored CD4 | restoration of cell-surface MHC-I in Nef-expressing cells ([2]; 2.5 nM and 0.5 nM): restored equally in both conditions | Nef-mediated degradation of HLA-A2 and CD4 (Western blot) ([2]; high dose (2.5 nM)): inhibited Nef-mediated degradation of both HLA-A2 and CD4 | degradation of CD4 (Western blot) ([2]; low dose (0.5 nM)): did not prevent degradation of CD4 | degradation of MHC-I in Nef-expressing cells (Western blot) ([2]; low dose (0.5 nM)): MHC-I was not degraded in Nef-expressing cells | drug concentrations in plasma and lymph nodes [3]: higher than those required to counteract Nef activity in vitro | CTL-mediated elimination of PLAP+ cells infected with Nef-competent virus ([4]; 0.5 nM, 24 hours): efficiently eliminated by CTLs | clearance of SL9 peptide-pulsed target cells by anti-HIV CTLs ([4]; in the presence of 0.5 nM): No change in the clearance | EC50 [5]: 12.7 nM
